Structures are written as SMILES. Where a name gives a salt, the structure may show the parent alone.

The target in one experiment is full-length USP7 (Homo sapiens (Human), UniProt Q93009). Kind of experiment: Enzymatic assay to determine IC50 of USP7 inhibitors (Ubiquitin-Rhodamine 110 cleavage). Type of experiment: biochemical. The note with it: 0.5 nM USP7, 0.5 μM Ubiquitin-Rhodamine 110, 45 min at 37° C. A digest of the protocol: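 Enzyme: 0.5 nM full-length USP7 in HEPES pH 7.5 buffer with NaCl, DTT, BSA and Tween20, given 15 min at room temperature with DTT before compounds were added.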
Chain of full-length USP7 (Q93009 whole entry): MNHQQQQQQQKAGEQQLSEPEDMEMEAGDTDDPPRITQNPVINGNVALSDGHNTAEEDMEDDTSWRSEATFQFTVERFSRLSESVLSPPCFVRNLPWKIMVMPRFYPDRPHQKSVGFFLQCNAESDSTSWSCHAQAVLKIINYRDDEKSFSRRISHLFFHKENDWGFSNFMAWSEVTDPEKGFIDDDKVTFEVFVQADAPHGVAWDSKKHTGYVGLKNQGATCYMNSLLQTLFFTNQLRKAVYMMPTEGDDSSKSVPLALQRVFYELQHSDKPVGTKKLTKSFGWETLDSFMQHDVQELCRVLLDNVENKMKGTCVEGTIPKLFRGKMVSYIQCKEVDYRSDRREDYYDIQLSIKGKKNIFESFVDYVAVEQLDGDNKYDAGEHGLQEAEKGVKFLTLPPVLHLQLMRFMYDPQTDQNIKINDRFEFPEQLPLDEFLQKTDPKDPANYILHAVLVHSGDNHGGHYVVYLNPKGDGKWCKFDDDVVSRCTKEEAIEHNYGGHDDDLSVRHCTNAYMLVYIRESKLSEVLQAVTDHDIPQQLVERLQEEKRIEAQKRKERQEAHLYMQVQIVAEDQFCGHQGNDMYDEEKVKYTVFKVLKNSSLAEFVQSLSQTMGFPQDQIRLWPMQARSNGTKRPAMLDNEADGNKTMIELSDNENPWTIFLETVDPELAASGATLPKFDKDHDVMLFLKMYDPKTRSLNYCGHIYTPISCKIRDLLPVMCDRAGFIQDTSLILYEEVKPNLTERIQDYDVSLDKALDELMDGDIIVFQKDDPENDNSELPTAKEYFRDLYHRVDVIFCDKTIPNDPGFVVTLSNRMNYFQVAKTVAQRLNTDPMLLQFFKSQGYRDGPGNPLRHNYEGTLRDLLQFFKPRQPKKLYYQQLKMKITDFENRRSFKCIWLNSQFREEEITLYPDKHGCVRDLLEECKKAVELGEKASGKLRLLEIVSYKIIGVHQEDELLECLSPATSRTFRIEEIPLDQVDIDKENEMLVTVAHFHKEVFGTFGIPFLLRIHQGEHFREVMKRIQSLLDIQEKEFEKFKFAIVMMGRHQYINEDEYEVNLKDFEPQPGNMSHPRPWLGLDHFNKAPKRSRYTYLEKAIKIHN
For `Cc1cc(C(F)(F)F)nc(-c2ccnc3cc(CN4C(=O)C5C(C4=O)C5(C)C)sc23)c1C(=O)N[C@H]1CCNC1` (stereo partly drawn) [Example 75, 2-(2-((6,6-dimethyl-2,4-dioxo-3-azabicyclo[3.1.0]hexan-3-yl)methyl)thieno[3,2-b]pyridin-7-yl)-4-methyl-N—((S)-pyrrolidin-3-yl)-6-(trifluoromethyl)nicotinamide dihydrochloride], the IC50 is 1000 to 10000 nM.

`CNCC(=O)Nc1c(-c2ccnc3cc(CN4C(=O)C5C(C4=O)C5(C)C)sc23)cc(C(F)(F)F)nc1C` (stereo not shown) [Example 60, N-(4-(2-((6,6-dimethyl-2,4-dioxo-3-azabicyclo[3.1.0]hexan-3-yl)methyl)thieno[3,2-b]pyridin-7-yl)-2-methyl-6-(trifluoromethyl)pyridin-3-yl)-2-(methylamino)acetamide 2,2,2-trifluoroacetate] displayed an IC50 of over 10000 nM.

With `Cc1nc(C(F)(F)F)cc(-c2ccnc3cc(CN4C(=O)C5C(C4=O)C5(C)C)sc23)c1NC(=O)C1CCNCC1` (stereo not shown) [Example 87, N-(4-(2-((6,6-dimethyl-2,4-dioxo-3-azabicyclo[3.1.0]hexan-3-yl)methyl)thieno[3,2-b]pyridin-7-yl)-2-methyl-6-(trifluoromethyl)pyridin-3-yl)piperidine-4-carboxamide hydrochloride], the half-inhibitory concentration (IC50) lay within 1000 to 10000 nM.

Turning to `Cc1cc(C(F)(F)F)nc(-c2ccnc3cc(CN4C(=O)C5C(C4=O)C5(C)C)sc23)c1NC1CC2(CNC2)C1` (stereo not shown) [Example 132, 3-((7-(3-((2-azaspiro[3.3]heptan-6-yl)amino)-4-methyl-6-(trifluoromethyl)pyridin-2-yl)thieno[3,2-b]pyridin-2-yl)methyl)-6,6-dimethyl-3-azabicyclo[3.1.0]hexane-2,4-dione 2,2,2-trifluoroacetate], the IC50 is under 500 nM.

Turning to `Cc1cc(C#N)nc(-c2ccnc3cc(CN4C(=O)C5C(C4=O)C5(C)C)sc23)c1NC1CNC1` (stereo not shown) [Example 24, 5-(azetidin-3-ylamino)-6-(2-((6,6-dimethyl-2,4-dioxo-3-azabicyclo[3.1.0]hexan-3-yl)methyl)thieno[3,2-b]pyridin-7-yl)-4-methylpicolinonitrile 2,2,2-trifluoroacetate], the 50% inhibitory concentration (IC50) was under 500 nM.

`Cc1cc(C(F)(F)F)nc(-c2ccnc3cc(CN4C(=O)C5C(C4=O)C5(C)C)sc23)c1C(=O)N1C[C@@H](N)[C@@H](C)C1` (stereo partly drawn) [Example 106, 3-((7-(3-((3S,4S)-3-amino-4-methylpyrrolidine-1-carbonyl)-4-methyl-6-(trifluoromethyl)pyridin-2-yl)thieno[3,2-b]pyridin-2-yl)methyl)-6,6-dimethyl-3-azabicyclo[3.1.0]hexane-2,4-dione hydrochloride]: the IC50 was under 500 nM.

`Cc1cc(C)c(NC(=O)C2CNC2)c(-c2ccnc3cc(CN4C(=O)C5C(C4=O)C5(C)C)sc23)n1` (stereo not shown) [Example 133, N-(2-(2-((6,6-dimethyl-2,4-dioxo-3-azabicyclo[3.1.0]hexan-3-yl)methyl)thieno[3,2-b]pyridin-7-yl)-4,6-dimethylpyridin-3-yl)azetidine-3-carboxamide 2,2,2-trifluoroacetate] returned a 50% inhibitory concentration (IC50) of 1000 to 10000 nM.

In turn, `Cc1nc(C(F)(F)F)cc(-c2ccnc3cc(CN4C(=O)C5C(C4=O)C5(C)C)sc23)c1CN1CC(F)(F)C1` (stereo not shown) [Example 103, 3-((7-(3-((3,3-difluoroazetidin-1-yl)methyl)-2-methyl-6-(trifluoromethyl)pyridin-4-yl)thieno[3,2-b]pyridin-2-yl)methyl)-6,6-dimethyl-3-azabicyclo[3.1.0]hexane-2,4-dione 2,2,2-trifluoroacetate] registered an IC50 of 1000 to 10000 nM.

For `CN[C@H]1CCN(Cc2c(C)cc(C(F)(F)F)nc2-c2ccnc3cc(CN4C(=O)C5C(C4=O)C5(C)C)sc23)C1` (stereo partly drawn) [Example 160, 6,6-dimethyl-3-((7-(4-methyl-3-(((S)-3-(methylamino)pyrrolidin-1-yl)methyl)-6-(trifluoromethyl)pyridin-2-yl)thieno[3,2-b]pyridin-2-yl)methyl)-3-azabicyclo[3.1.0]hexane-2,4-dione hydrochloride], the concentration for half-maximal inhibition (IC50) was under 500 nM.

The experiment is the same for the next values; noted with them: at 1 μM of the test compound; given where IC50 not determined yet; read-out: percent value of inhibition of USP7 activity.
`Cc1c(N(C)C)cc(-c2ccnc3cc(CN4C(=O)C5C(C4=O)C5(C)C)sc23)n1C[C@@H]1CNCCO1` (stereo partly drawn) [Example 177, 3-((7-(4-(dimethylamino)-5-methyl-1-(((S)-morpholin-2-yl)methyl)-1H-pyrrol-2-yl)thieno[3,2-b]pyridin-2-yl)methyl)-6,6-dimethyl-3-azabicyclo[3.1.0]hexane-2,4-dione hydrochloride]: the inhibition at 1 µM is under 20%.

Regarding `CC1(C)C2C(=O)N(Cc3cc4nccc(-c5cc(F)cnc5O[C@H]5CCNC5)c4s3)C(=O)C21` (stereo partly drawn) [Example 157, 3-((7-(5-fluoro-2-(((S)-pyrrolidin-3-yl)oxy)pyridin-3-yl)thieno[3,2-b]pyridin-2-yl)methyl)-6,6-dimethyl-3-azabicyclo[3.1.0]hexane-2,4-dione dihydrochloride], the inhibition at 1 µM is under 20%.

As for `Cc1cc(C(F)(F)F)nc(-c2ccnc3cc(CN4C(=O)C5C(C4=O)C5(C)C)sc23)c1C(=O)N1C[C@@H](F)[C@@H](N)C1` (stereo partly drawn) [Example 171, 3-((7-(3-((3S,4R)-3-amino-4-fluoropyrrolidine-1-carbonyl)-4-methyl-6-(trifluoromethyl)pyridin-2-yl)thieno[3,2-b]pyridin-2-yl)methyl)-6,6-dimethyl-3-azabicyclo[3.1.0]hexane-2,4-dione hydrochloride], the inhibition at 1 µM lay within 50 to 70%.

In the case of `CC1(C)C2C(=O)N(Cc3cc4nccc(-c5cc(F)cnc5O[C@H]5CCCNC5)c4s3)C(=O)C21` (stereo partly drawn) [Example 152, 3-((7-(5-fluoro-2-(((S)-piperidin-3-yl)oxy)pyridin-3-yl)thieno[3,2-b]pyridin-2-yl)methyl)-6,6-dimethyl-3-azabicyclo[3.1.0]hexane-2,4-dione dihydrochloride], the inhibition at 1 µM is under 20%.

As to `Cc1ccnc(-c2ccnc3cc(CN4C(=O)C5C(C4=O)C5(C)C)sc23)c1C(=O)N1CCC(F)(F)C1` (stereo not shown) [Example 49, 3-((7-(3-(3,3-difluoropyrrolidine-1-carbonyl)-4-methylpyridin-2-yl)thieno[3,2-b]pyridin-2-yl)methyl)-6,6-dimethyl-3-azabicyclo[3.1.0]hexane-2,4-dione hydrochloride], the inhibition at 1 µM was under 20%.

For `Cc1ccnc(-c2ccnc3cc(CN4C(=O)C5C(C4=O)C5(C)C)sc23)c1C(=O)N1CC(F)(F)C1` (stereo not shown) [Example 50, 3-((7-(3-(3,3-difluoroazetidine-1-carbonyl)-4-methylpyridin-2-yl)thieno[3,2-b]pyridin-2-yl)methyl)-6,6-dimethyl-3-azabicyclo[3.1.0]hexane-2,4-dione hydrochloride], the inhibition at 1 µM is under 20%.

The same experiment, now with this note: read-out: percent value of inhibition of USP7 activity.
Take `Cc1nc(C(F)(F)F)cc(-c2ccnc3cc(CN4C(=O)C5C(C4=O)C5(C)C)sc23)c1NC(=O)CN1CC(F)(F)C1` (stereo not shown) [Example 32, 2-(3,3-difluoroazetidin-1-yl)-N-(4-(2-((6,6-dimethyl-2,4-dioxo-3-azabicyclo[3.1.0]hexan-3-yl)methyl)thieno[3,2-b]pyridin-7-yl)-2-methyl-6-(trifluoromethyl)pyridin-3-yl)acetamide 2,2,2-trifluoroacetate]: the inhibition at 1 µM is under 20%.

What is called IC50 is the concentration that gives 50% inhibition. Read a low IC50 as greater potency. In general, inhibition refers to the drop in the measured response relative to a control, in per cent.

The values are drawn from patent publication US12404279B2, “Deubiquitinase inhibitors and methods of use thereof” (Molecure S.A., priority 2021, dated 2025).
